Measurements as given in patent US20070276011A1, “Plasminogen Activator Inhibitor-1 Inhibitor” (priority 2003, published 2007).

Target: recombinant human PAI-1 (Homo sapiens, UniProt P05121)
Assay: PAI-1 inhibitory activity, Test Method A (tPA fluorogenic substrate, Tris buffer pH8.0, 37 C)
Type: biochemical
Conditions: Test Method A

Sequence of recombinant human PAI-1 (P05121 24-402): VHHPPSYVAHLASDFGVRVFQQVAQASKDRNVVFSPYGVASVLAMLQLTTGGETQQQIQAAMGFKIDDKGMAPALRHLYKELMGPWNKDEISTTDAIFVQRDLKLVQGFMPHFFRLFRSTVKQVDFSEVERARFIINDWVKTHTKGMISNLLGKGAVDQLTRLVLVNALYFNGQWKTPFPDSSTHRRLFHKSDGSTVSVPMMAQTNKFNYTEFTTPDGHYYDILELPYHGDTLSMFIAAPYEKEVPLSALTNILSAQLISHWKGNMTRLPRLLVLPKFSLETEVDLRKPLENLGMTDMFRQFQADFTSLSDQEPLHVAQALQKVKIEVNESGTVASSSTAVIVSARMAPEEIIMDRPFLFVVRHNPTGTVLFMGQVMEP

Q: Which “Inhibitory Ratio at 25 μM (%)” value (25 μM test compound) does the source give for `CCOC1=NN(c2ccc([N+](=O)[O-])cc2)C(=O)C1=Cc1c(O)cccc1OC` [compound 550, 4-(2-hydroxy-6-methoxybenzylidene)-1-(4-nitrophenyl)-3-ethoxy-2-pyrazolin-5-one] here?
A: 66%

Q: `COc1ccc(OC)c(NC(=O)c2cc(C=C3SC(=O)N(Cc4ccc(Cl)c(Cl)c4)C3=O)ccc2O)c1` [compound 471] was tested. Which “Inhibitory Ratio at 25 μM (%)” value (25 μM test compound) did it give?
A: 96%

Q: Which “Inhibitory Ratio at 25 μM (%)” value (25 μM test compound) does the source give for `O=C1SC(=Cc2ccc(O)c(O)c2)C(=O)N1Cc1cc(C(F)(F)F)ccc1C(F)(F)F` [compound 305, 5-(3,4-Dihydroxybenzylidene)-3-[2,5-bis(trifluoromethyl)benzyl]-thiazolidine-2,4-dione] here?
A: >99%

Q: `CC(C)C1=NN(c2ccc(Cl)c(Cl)c2)C(=O)C1=Cc1cc(O)ccc1O` [compound 519] was tested. Which “Inhibitory Ratio at 25 μM (%)” value (25 μM test compound) did it give?
A: 80%

Q: With `COc1ccc(Cl)cc1NC(=O)c1cc(C=C2SC(=O)N(Cc3ccc(Cl)c(Cl)c3)C2=O)ccc1O` [compound 454] as the compound, how does the “Inhibitory Ratio at 25 μM (%)” value (25 μM test compound) read?
A: >99%

Q: For `COc1cc(C=C2C(=O)N(c3ccc(Cl)c(C(=O)O)c3)N=C2C)ccc1OCc1ccccc1` [compound 170], which “Inhibitory Ratio at 25 μM (%)” value (test compound 25 μM) is on record?
A: >99%

Q: For `COC(=O)c1cccc(N2N=C(c3ccccc3)C(=Cc3ccc(-c4cc(Cl)cc(Cl)c4)o3)C2=O)c1` [compound 180], which “Inhibitory Ratio at 25 μM (%)” value (test compound 25 μM) is on record?
A: 90%

Q: With `COC(=O)c1cccc(N2N=C(c3ccccc3)C(=Cc3ccc(Br)o3)C2=O)c1` [compound 194] as the compound, how does the “Inhibitory Ratio at 25 μM (%)” value (test compound 25 μM) read?
A: 84%

Q: Which “Inhibitory Ratio at 25 μM (%)” value (test compound 25 μM) does the source give for `Cc1cccc(N2N=C(C(C)C)C(=Cc3cc(O)c(O)c(O)c3)C2=O)c1` [compound 157] here?
A: 37%

Q: `COc1cc(CN2C(=O)SC(=Cc3cccc(O)c3O)C2=O)cc(OC)c1` [compound 3, 5-(2,3-Dihydroxybenzylidene)-3-(3,5-dimethoxybenzyl)thiazolidine-2,4-dione] was tested. Which “Inhibitory Ratio at 25 μM (%)” value (test compound 25 μM) did it give?
A: 71%

Q: For `O=C(O)c1cc(C=C2SC(=O)N(Cc3ccc(Cl)c(Cl)c3)C2=O)cc(O)c1O` [compound 464, 5-(3,4-dihydroxy-5-carboxybenzylidene)-3-(3,4-dichlorobenzyl)-thiazolidine-2,4-dione], which “Inhibitory Ratio at 25 μM (%)” value (25 μM test compound) is on record?
A: >99%

Q: Which “Inhibitory Ratio at 25 μM (%)” value (25 μM test compound) does the source give for `CCOC1=NN(c2ccc([N+](=O)[O-])cc2)C(=O)C1=Cc1cc(O)c(O)cc1Br` [compound 557, 4-(2-Bromo-4,5-dihydroxybenzylidene)-1-(4-nitrophenyl)-3-ethoxy-2-pyrazolin-5-one] here?
A: 82%

Q: With `O=C1SC(=Cc2cc([N+](=O)[O-])ccc2O)C(=O)N1Cc1ccc(Cl)c(Cl)c1` [compound 55] as the compound, how does the “Inhibitory Ratio at 25 μM (%)” value (test compound 25 μM) read?
A: 77%

Q: How did the “Inhibitory Ratio at 25 μM (%)” value (test compound 25 μM) turn out when `O=C1SC(=Cc2ccc(O)c(O)c2)C(=O)N1Cc1cccc(Cl)c1` [compound 31] was run?
A: >99%

Q: Which “Inhibitory Ratio at 25 μM (%)” value (25 μM test compound) does the source give for `O=C(O)c1ccc(NC(=O)c2cccc(C=C3SC(=O)N(Cc4ccc(Cl)c(Cl)c4)C3=O)c2)cc1` [compound 389, 5-[3 (4-Carboxyphenylcarbamoyl)benzylidene]-3-(3,4-dichlorobenzyl)thiazolidine-2,4-dione] here?
A: >99%

Q: `O=C1SC(=Cc2ccc(O)c(O)c2)C(=O)N1Cc1cc(F)cc(F)c1` [compound 25] was tested. Which “Inhibitory Ratio at 25 μM (%)” value (test compound 25 μM) did it give?
A: >99%

Q: How did the “Inhibitory Ratio at 25 μM (%)” value (25 μM test compound) turn out when `COc1ccc(NC(=O)c2cc(C=C3SC(=O)N(Cc4cc(C)cc(C)c4)C3=O)ccc2O)cc1OC` [compound 393, 5-[4-Hydroxy-3-(3,4-dimethoxyphenylcarbamoyl)benzylidene]-3-(3,5-dimethylbenzyl)thiazolidine-2,4-dione] was run?
A: >99%

Q: For `Cc1cc(C)cc(CN2C(=O)SC(=Cc3ccc(O)c(O)c3)C2=O)c1` [compound 27], which “Inhibitory Ratio at 25 μM (%)” value (test compound 25 μM) is on record?
A: >99%

Q: Which “Inhibitory Ratio at 25 μM (%)” value (test compound 25 μM) does the source give for `CC1=NN(c2ccc(Cl)c(Cl)c2)C(=O)C1=Cc1cc(O)c(O)c(O)c1` [compound 144, 4-(3,4,5-Trihydroxybenzylidene)-1-(3,4-dichlorophenyl)-3-methyl-2-pyrazolin-5-one] here?
A: 53%

Q: `CC(C)(C)C1=NN(c2cc(Cl)cc(Cl)c2)C(=O)C1=Cc1ccc(O)c(O)c1` [compound 138, 4-(3,4-Dihydroxybenzylidene)-1-(3,5-dichlorophenyl)-3-(tert-butyl)-2-pyrazolin-5-one] was tested. Which “Inhibitory Ratio at 25 μM (%)” value (test compound 25 μM) did it give?
A: >99%

Q: How did the “Inhibitory Ratio at 25 μM (%)” value (25 μM test compound) turn out when `O=C1C(=Cc2ccc(O)c(O)c2)SC(=S)N1Cc1ccc(C=Cc2ccccc2)cc1` [compound 306, 5-(3,4-Dihydroxybenzylidene)-3-(4-styrylbenzyl)rhodanine] was run?
A: >99%

Q: How did the “Inhibitory Ratio at 25 μM (%)” value (test compound 25 μM) turn out when `O=C1C(=Cc2ccc(O)c(O)c2)C(c2ccccc2)=NN1c1cc(Cl)cc(Cl)c1` [compound 129, 4-(3,4-Dihydroxybenzylidene)-1-(3,5-dichlorophenyl)-3-phenyl-2-pyrazolin-5-one] was run?
A: >99%

Q: Which “Inhibitory Ratio at 25 μM (%)” value (25 μM test compound) does the source give for `COc1cccc(NC(=O)c2cc(C=C3SC(=O)N(Cc4ccc(Cl)c(Cl)c4)C3=O)ccc2O)c1OC` [compound 434, 5-[4-hydroxy-3-(2,3-dimethoxyphenylcarbamoyl)benzylidene]-3-(3,4-dichlorobenzyl)thiazolidine-2,4-dione] here?
A: >99%

Q: Which “Inhibitory Ratio at 25 μM (%)” value (25 μM test compound) does the source give for `O=C1C(=Cc2cc(C=Cc3ccccc3)ccc2O)C(c2ccc(O)cc2)=NN1c1ccc(Cl)cc1` [compound 530] here?
A: >99%

Q: Which “Inhibitory Ratio at 25 μM (%)” value (test compound 25 μM) does the source give for `O=C1SC(=Cc2ccc(O)c(O)c2)C(=O)N1Cc1ccc([N+](=O)[O-])cc1` [compound 50, 5-(3,4-Dihydroxybenzylidene)-3-(4-nitrobenzyl)thiazolidine-2,4-dione] here?
A: 82%

Q: How did the “Inhibitory Ratio at 25 μM (%)” value (25 μM test compound) turn out when `CCOC1=NN(c2ccc([N+](=O)[O-])cc2)C(=O)C1=Cc1c(O)cccc1O` [compound 552] was run?
A: 95%

Q: `CC(C)(C)c1cc(CN2C(=O)SC(=Cc3ccc(O)c(O)c3)C2=O)cc(C(C)(C)C)c1O` [compound 14] was tested. Which “Inhibitory Ratio at 25 μM (%)” value (test compound 25 μM) did it give?
A: >99%

Q: With `CCOC(=O)CCCC1=NN(c2ccc(Cl)cc2)C(=O)C1=Cc1cc(Br)ccc1O` [compound 516, 4-(2-Hydroxy-5-bromobenzylidene)-1-(4-chlorophenyl)-3-[3-(ethoxycarbonyl)propyl]-2-pyrazolin-5-one] as the compound, how does the “Inhibitory Ratio at 25 μM (%)” value (25 μM test compound) read?
A: 86%

Q: For `O=C(Nc1cc(C(F)(F)F)ccc1Oc1ccc(O)cc1)c1cc(C=C2SC(=O)N(Cc3ccc(Cl)c(Cl)c3)C2=O)ccc1O` [compound 422], which “Inhibitory Ratio at 25 μM (%)” value (25 μM test compound) is on record?
A: 95%

Q: For `Cc1cccc(N2N=C(C(C)C)C(=Cc3ccc(O)c(O)c3)C2=O)c1` [compound 125, 4-(3,4-Dihydroxybenzylidene)-1-(3-methylphenyl)-3-isopropyl-2-pyrazolin-5-one], which “Inhibitory Ratio at 25 μM (%)” value (test compound 25 μM) is on record?
A: 38%

Q: How did the “Inhibitory Ratio at 25 μM (%)” value (25 μM test compound) turn out when `CCOC(=O)Oc1cc(C=C2SC(=O)N(Cc3ccc(Cl)c(Cl)c3)C2=O)cc(OC(=O)OCC)c1OC(=O)OCC` [compound 340] was run?
A: 56%

Q: With `O=C(Nc1ccc(CN2C(=O)SC(=Cc3ccc(O)c(O)c3)C2=O)cc1)c1ccccc1` [compound 83] as the compound, how does the “Inhibitory Ratio at 25 μM (%)” value (test compound 25 μM) read?
A: 60%

Q: How did the “Inhibitory Ratio at 25 μM (%)” value (test compound 25 μM) turn out when `O=C1SC(=Cc2ccc(O)c(O)c2)C(=O)N1Cc1ccc(Cl)cc1` [compound 33] was run?
A: >99%

Q: How did the “Inhibitory Ratio at 25 μM (%)” value (test compound 25 μM) turn out when `O=C1SC(=Cc2cc(O)c(O)c(O)c2)C(=O)N1Cc1cccc([N+](=O)[O-])c1` [compound 52] was run?
A: 50%

Q: With `O=C(O)c1cccc(N2N=C(C(F)(F)F)C(=Cc3ccc(-c4cc(Cl)cc(Cl)c4)o3)C2=O)c1` [compound 162] as the compound, how does the “Inhibitory Ratio at 25 μM (%)” value (test compound 25 μM) read?
A: 56%

Q: `O=C1SC(=Cc2cc(Br)cc(Br)c2O)C(=O)N1c1ccccc1` [compound 1] was tested. Which “Inhibitory Ratio at 25 μM (%)” value (test compound 25 μM) did it give?
A: >99%

Q: `COCC1=NN(c2cc(Cl)cc(Cl)c2)C(=O)C1=Cc1cc(O)c(O)cc1O` [compound 522] was tested. Which “Inhibitory Ratio at 25 μM (%)” value (25 μM test compound) did it give?
A: >99%

Q: `COC(=O)c1ccc(Cl)cc1NC(=O)c1cc(C=C2SC(=O)N(Cc3ccc(Cl)c(Cl)c3)C2=O)ccc1O` [compound 453, 5-[4-hydroxy-3-(2-methoxycarbonyl-5-chlorophenylcarbamoyl)-benzylidene]-3-(3,4-dichlorobenzyl)thiazolidine-2,4-dione] was tested. Which “Inhibitory Ratio at 25 μM (%)” value (25 μM test compound) did it give?
A: >99%

Q: How did the “Inhibitory Ratio at 25 μM (%)” value (test compound 25 μM) turn out when `O=C1SC(=Cc2ccc(O)c(O)c2)C(=O)N1Cc1cccc(C(F)(F)F)c1` [compound 42] was run?
A: >99%

Q: With `COC(=O)c1cccc(N2N=C(C(F)(F)F)C(=Cc3ccc(-c4cc(Cl)cc(Cl)c4)s3)C2=O)c1` [compound 181] as the compound, how does the “Inhibitory Ratio at 25 μM (%)” value (test compound 25 μM) read?
A: 23%

Q: With `O=C(O)c1ccc(N2N=C(c3cc(Br)ccc3O)C(=Cc3ccc(Cl)c(Cl)c3)C2=O)cc1` [Compound No. 564, 4-(3,4-Dichlorobenzylidene)-1-(4-carboxyphenyl)-3-(2-hydroxy-5-bromophenyl)-2-pyrazolin-5-one] as the compound, how does the “Inhibitory Ratio at 25 μM (%)” value (25 μM test compound) read?
A: 96%

Q: `O=C1C(=Cc2cc(O)c(O)c(O)c2)C(C(F)(F)F)=NN1c1cc(Cl)cc(Cl)c1` [compound 149] was tested. Which “Inhibitory Ratio at 25 μM (%)” value (test compound 25 μM) did it give?
A: >99%

Q: For `O=C1SC(=Cc2cccc(O)c2O)C(=O)N1Cc1cccc(Br)c1` [compound 34, 5-(2,3-Dihydroxybenzylidene)-3-(3-bromobenzyl)thiazolidine-2,4-dione], which “Inhibitory Ratio at 25 μM (%)” value (test compound 25 μM) is on record?
A: >99%

Q: With `O=C(OCc1ccccc1)c1cc(C=C2SC(=O)N(Cc3cc(C(F)(F)F)ccc3C(F)(F)F)C2=O)ccc1O` [compound 363, 5-(3-Benzyloxycarbonyl-4-hydroxybenzylidene)-3-[2,5-bis(trifluoromethyl)benzyl]thiazolidine-2,4-dione] as the compound, how does the “Inhibitory Ratio at 25 μM (%)” value (25 μM test compound) read?
A: 84%

Q: With `CC(C)C1=NN(c2cc(C(F)(F)F)cc(C(F)(F)F)c2)C(=O)C1=Cc1ccc(O)c(O)c1` [compound 118, 4-(3,4-Dihydroxybenzylidene)-1-[3,5-bis(trifluoromethyl)phenyl]-3-isopropyl-2-pyrazolin-5-one] as the compound, how does the “Inhibitory Ratio at 25 μM (%)” value (test compound 25 μM) read?
A: >99%

Q: Which “Inhibitory Ratio at 25 μM (%)” value (25 μM test compound) does the source give for `COc1ccc(C(C)(C)C)cc1NC(=O)c1cc(C=C2SC(=O)N(Cc3ccc(Cl)c(Cl)c3)C2=O)ccc1O` [compound 467] here?
A: >99%

Q: `O=C(Nc1ccc(O)c(O)c1)c1cc(C=C2SC(=O)N(CCc3ccc(Cl)cc3)C2=O)ccc1O` [compound 377] was tested. Which “Inhibitory Ratio at 25 μM (%)” value (25 μM test compound) did it give?
A: 81%

Q: For `O=C1SC(=Cc2cc(O)ccc2[N+](=O)[O-])C(=O)N1Cc1ccc(Cl)c(Cl)c1` [compound 39], which “Inhibitory Ratio at 25 μM (%)” value (test compound 25 μM) is on record?
A: >99%

Q: How did the “Inhibitory Ratio at 25 μM (%)” value (test compound 25 μM) turn out when `O=C1SC(=Cc2cccc(O)c2O)C(=O)N1Cc1cc(F)cc(F)c1` [compound 24, 5-(2,3-Dihydroxybenzylidene)-3-(3,5-difluorobenzyl)thiazolidine-2,4-dione] was run?
A: >99%

Q: How did the “Inhibitory Ratio at 25 μM (%)” value (25 μM test compound) turn out when `O=C(Nc1cc(C=C2SC(=O)N(Cc3ccc(Cl)c(Cl)c3)C2=O)ccc1O)c1ccc(O)cc1` [compound 382] was run?
A: 97%

Q: How did the “Inhibitory Ratio at 25 μM (%)” value (25 μM test compound) turn out when `CC(C)C1=NN(c2cc(Cl)cc(Cl)c2)C(=O)C1=Cc1cc(Br)ccc1O` [compound 526] was run?
A: >99%
